According to patent US10519106B2, “Urea derivative and use therefor” (Toray Industries, Inc., priority 2015, dated 2019):
Structures can show the parent of a compound that is named as a salt.

target: T1, intracellular domain of DDR1 (Homo sapiens, UniProt Q08345); experiment: Evaluation of DDR1 inhibition activity with HTRF KinEASE-TK kit; format: biochemical; conditions: intracellular domain of DDR1 5 ng/μL, ATP 25 mol/L (so in the source), TK Substrate-biotin 1000 nmol/L, room temperature, one hour
T1 construct: the intracellular domain of DDR1 (in a final concentration of 5 ng/μL) (Carna Biosciences, Inc.); purchased Carna Biosciences, Inc
T1 sequence (Q08345 444-876 isoform Q08345-2 limits assumed): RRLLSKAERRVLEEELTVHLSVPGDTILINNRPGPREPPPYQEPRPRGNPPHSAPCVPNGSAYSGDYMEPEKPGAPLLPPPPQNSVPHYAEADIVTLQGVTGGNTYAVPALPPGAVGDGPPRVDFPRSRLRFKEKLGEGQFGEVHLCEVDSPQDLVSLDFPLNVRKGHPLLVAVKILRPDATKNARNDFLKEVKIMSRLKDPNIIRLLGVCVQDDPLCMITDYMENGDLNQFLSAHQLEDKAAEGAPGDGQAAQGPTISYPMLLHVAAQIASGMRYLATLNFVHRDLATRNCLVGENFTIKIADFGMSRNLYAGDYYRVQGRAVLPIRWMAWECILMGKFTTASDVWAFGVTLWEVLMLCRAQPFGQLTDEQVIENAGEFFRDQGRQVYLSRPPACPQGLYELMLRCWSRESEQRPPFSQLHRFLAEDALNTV
Description: The DDR1 inhibition activity of the compounds of Examples 1 to 51 was evaluated with HTRF® KinEASE-TK kit (Cisbio Bioassays).
Each test substance was dissolved in dimethyl sulfoxide (hereinafter referred to as DMSO) and then used for the evaluation as described below. Moreover, each of test substances and reagents was diluted in the kinase buffer (Cisbio Bioassays) prepared by adding thereto MgCl2, MnCl2, DTT, and the Supplemental Enzyme buffer (Cisbio Bioassays) to concentrations of 5 mmol/L, 0.5 mmol/L, 0.25 mmol/L, and 50 nmol/L, respectively, and then used. Each test substance (in DMSO in a final concentration of 1%), the intracellular domain of DDR1 (in a final concentration of 5 ng/μL) (Carna Biosciences, Inc.), the phosphate donor ATP (in final concentration of 25 mol/L) (Sigma), and the substrate TK Substrate-biotin (in a final concentration of 1000 nmol/L) (Cisbio Bioassays) were added to a 384-well black plate (Corning) and allowed to react at room temperature for one hour. After completion of the reaction, the TK Antibody-Cryptate (Cisbio Bioassays) and the Streptavidin-XL665 (Cisbio Bioassays) were added thereto and allowed to react at room temperature for one hour. In addition, the plate was provided with a well to which a test substance was not added, and with a well to which the intracellular domain of DDR1 and a test substance were not added.
The fluorescence intensity in each well was measured using a multi-label counter (Envision, PerkinElmer; excitation wavelength: 320 nm, measurement wavelength: 665 nm and 620 nm) to calculate a Ratio (the fluorescence intensity at 665 nm/the fluorescence intensity at 620 nm). The inhibition rate (%) of a test substance at each concentration was calculated based on the formula below. Inhibition rate (%)=([the Ratio obtained from the well containing no test substance]−[the Ratio from a well containing a test substance])/([the Ratio obtained from the well containing no test substance]−[the Ratio obtained from the well containing no intracellular domain of DDR1 and no test substance])×100
The calculated inhibition rates were fitted to a sigmoidal dose-response curve by regression analysis using the Prism 5.04 (GraphPad Software, Inc.) to calculate the ICso0 value of the test substance.

First: COc1ccc(S(F)(F)(F)(F)F)cc1NC(=O)NCc1ccccc1Oc1ccnc(-n2ccnc2)n1 [Compound of Example 24, 1-(2-((2-(1H-imidazol-1-yl)pyrimidin-4-yl)oxy)benzyl)-3-(2-methoxy-5-(pentafluorosulfanyl)phenyl)urea]
Second: COc1ccc(S(F)(F)(F)(F)F)cc1NC(=O)NCc1ccccc1Oc1ccncc1 [Compound of Example 23, 1-(2-methoxy-5-(pentafluorosulfanyl)phenyl)-3-(2-(pyridin-4-yloxy)benzyl)urea hydrochloride]
The IC50 of the first is 1.9-fold lower: 42.2 nM for the first, 78.7 nM for the second. The first is the more potent here.

Going from `COc1c(CO)cc(C(F)(F)F)cc1NC(=O)NCc1ccccc1OCc1ccc(C(N)=O)cc1` [Compound of Example 20, 4-((2-((3-(3-(hydroxymethyl)-2-methoxy-5-(trifluoromethyl)phenyl)ureido)methyl)phenoxy)methyl)benzamide] to `COC(=O)c1ccc(COc2ccccc2CNC(=O)Nc2cc(C(F)(F)F)cc(CO)c2OC)cc1` [Compound of Example 10, methyl 4-((2-((3-(3-(hydroxymethyl)-2-methoxy-5-(trifluoromethyl)phenyl)ureido)methyl)phenoxy)methyl)benzoate], the IC50 rises from 13.5 nM to 156 nM (12-fold).

Compared with `CNC(=O)c1ccc(Oc2ccccc2CNC(=O)Nc2cc(C(F)(F)F)ccc2OC2COC2)cc1` [Compound of Example 43, 4-(2-((3-(2-(oxetan-3-yloxy)-5-(trifluoromethyl)phenyl)ureido)methyl)phenoxy)-N-methyl-benzamide], `NC(=O)c1ccc(Oc2ccccc2CNC(=O)Nc2cc(OC(F)(F)F)ccc2OC2COC2)cc1` [Compound of Example 34, 4-(2-((3-(2-(oxetan-3-yloxy)-5-(trifluoromethoxy)phenyl)ureido)methyl)phenoxy)benzamide] is 3.6-fold lower in IC50: 78.5 nM for the first, 22 nM for the second.

`NC(=O)c1ccc(Oc2ccccc2CNC(=O)Nc2cccc(C(F)(F)F)c2)cc1` [Compound of Example 32] and `NC(=O)c1ccc(Oc2ccccc2CNC(=O)Nc2cc(CO)cc(C(F)(F)F)c2)cc1` [Compound of Example 35] are within 1.5-fold of each other in IC50: 17.3 nM for the first, 12.9 nM for the second.

First: COC(=O)c1ccc(COc2ccccc2CNC(=O)Nc2cc(OC(F)(F)F)ccc2OC)cc1 [Compound of Example 7, methyl 4-((2-((3-(2-methoxy-5-(trifluoromethoxy)phenyl)ureido)methyl)phenoxy)methyl)benzoate]
Second: COc1ccc(OC(F)(F)F)cc1NC(=O)NCc1ccccc1OCc1ccc(C(=O)O)cc1 [Compound of Example 8, 4-((2-((3-(2-methoxy-5-(trifluoromethoxy)phenyl)ureido)methyl)phenoxy)methyl)benzoic acid]
The IC50 of the first is 3.4-fold higher: 585 nM for the first, 172 nM for the second. The second is the more potent here.

Going from `CCN(CC)CCNC(=O)c1ccc(COc2ccccc2CNC(=O)Nc2cc(OC(F)(F)F)ccc2OC)cc1` [Compound of Example 15, N-(2-(diethylamino)ethyl)-4-((2-((3-(2-methoxy-5-(trifluoromethoxy)phenyl)ureido)methyl)phenoxy)methyl)benzamide] to `COc1ccc(C(F)(F)F)cc1NC(=O)NCc1cccc(OCc2cccnc2)c1` [Compound of Example 6], the IC50 falls from 308 nM to 32.5 nM (9.5-fold).
